Experiments:
[1] = biological target: T1, Bifunctional epoxide hydrolase 2 (Homo sapiens) (UniProt P34913); assay: Inhibition of recombinant human sEH extracted from baculovirus infected Sf9 cells using PHOME as substrate at 10 uM preincubated for 15 mins followed by PHOME substrate addition and measured after 60 mins by fluorescence based analysis relative to control; conditions: time 75.0 min
T1 sequence (whole entry): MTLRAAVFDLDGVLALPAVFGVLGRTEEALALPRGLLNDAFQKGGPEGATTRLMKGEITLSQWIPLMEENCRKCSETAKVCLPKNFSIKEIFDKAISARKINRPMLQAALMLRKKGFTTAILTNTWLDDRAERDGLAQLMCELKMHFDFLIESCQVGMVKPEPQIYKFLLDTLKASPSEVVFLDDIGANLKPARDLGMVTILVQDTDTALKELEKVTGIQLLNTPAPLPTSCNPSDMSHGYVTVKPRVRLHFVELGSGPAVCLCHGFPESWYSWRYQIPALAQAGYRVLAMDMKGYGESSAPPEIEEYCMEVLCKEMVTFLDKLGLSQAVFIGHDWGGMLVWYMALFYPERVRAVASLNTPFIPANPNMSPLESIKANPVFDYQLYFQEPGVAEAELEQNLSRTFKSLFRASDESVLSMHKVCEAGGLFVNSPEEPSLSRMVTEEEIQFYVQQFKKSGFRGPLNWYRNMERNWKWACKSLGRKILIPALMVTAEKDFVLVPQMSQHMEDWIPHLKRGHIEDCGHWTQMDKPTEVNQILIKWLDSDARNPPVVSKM

[2] = Microsomal stability in human liver microsomes assessed as half-life preincubated for 5 mins followed by NADPH and UDP-GlcUA addition and measured after 30 to 120 mins by UHPLC analysis; type: ADME, Microsome; conditions: time 35-125 min
[3] = Microsomal stability in human liver microsomes assessed as intrinsic clearance preincubated for 5 mins followed by NADPH and UDP-GlcUA addition and measured after 30 to 120 mins by UHPLC analysis; type: ADME, Microsome; conditions: time 35-125 min, read-out: CLH
HCT-116 = assay: Antiproliferative activity against human HCT-116 cells assessed as reduction in cell survival index incubated for 48 hrs by MTT assay; conditions: HCT-116, 48 h
[4] = Cytotoxicity against human HaCaT cells assessed as reduction in cell survival index incubated for 48 hrs by MTT assay; type: toxicity, cell-based

SMILES | inhibition [1] [%] | half-life [2] [min] | microsomal CLint [3] [µL/min/mg] | IC50 (HCT-116) [µM] | IC50 at 48 h [4] [µM]
O=C(COc1ccc2c(c1)-c1nc3nonc3nc1C2=O)OCc1ccccc1 | 48 | 4.5 | 307 |  | 
O=C1c2ccc(OCCc3ccc(F)cc3)cc2-c2nc3nonc3nc21 |  | 42.9 | 32.3 |  | 
O=C1c2ccc(OCCCc3ccccc3)cc2-c2nc3nonc3nc21 |  | 326 | 4.25 | 6.4 | 28
O=C(Oc1ccc2c(c1)-c1nc3nonc3nc1C2=O)c1ccccc1 |  | 69.6 | 19.9 |  | 
O=C1c2ccc(OCc3ccccc3)cc2-c2nc3nonc3nc21 |  | 165 | 8.42 |  | 
O=C1c2ccc(OCCc3cccc(C(F)(F)F)c3)cc2-c2nc3nonc3nc21 |  | 159 | 8.73 | 8.3 | 17
O=C1c2ccc(OCc3ccc(Br)cc3)cc2-c2nc3nonc3nc21 |  | 238 | 5.82 |  | 

From ChEMBL document CHEMBL6109085, “Furazanopyrazine-based novel promising anticancer agents interfering with the eicosanoid biosynthesis pathways by dual mPGES-1 and sEH inhibition” (Eur J Med Chem, 2025)
